Results: PMC12368495, “Pharmacokinetic/pharmacodynamic parameters of teicoplanin for predicting clinical outcome of glycopeptide-susceptible Enterococcus faecium bacteraemia” (JAC-Antimicrobial Resistance, 2025)

Legend:
[1] = test system: glycopeptide-susceptible Enterococcus faecium (GSEF); experiment: Teicoplanin MIC by gradient diffusion method (Etest) on archived blood isolates; assay type: cell-based; conditions: for MICEtest: median (IQR), Etest
Protocol: For this study, teicoplanin MIC determinations were performed on archived isolates using a commercial automated broth microdilution method with the MicroScan WalkAway-96 Plus system (MICWalkAway) (Beckman Coulter) and gradient diffusion method (MICEtest) (Etest, bioMérieux) following the manufacturer’s instructions. Due to a change in the MIC measurement range during the study period, all isolates were remeasured using the MicroScan WalkAway-96 Plus system for consistency. The MICWalkAway measurement range was 2, 4, 8, and 16 mg/L. The MICEtest results were reviewed and confirmed independently by three clinical microbiologists who were blinded to the clinical outcomes of the patients from whom the isolates were obtained. In cases where disagreement occurred among all three operators, the MIC was retested and determined by the representative operator, taking the initial results into consideration.

[2] = cited from earlier work
Description: The PK/PD parameter most commonly associated with the clinical efficacy of teicoplanin against MRSA is the ratio of the AUC to the MIC, referred to as AUC/MIC.[10],[11] The target AUC/MIC ratio for teicoplanin against MRSA is approximately 600–900, and achieving this target is known to improve therapeutic outcomes.[12],[13] Furthermore, teicoplanin is a highly protein-bound drug (approximately 90%), and it is the unbound (free) fraction that exerts antimicrobial activity. In critically ill patients, conditions such as hypoalbuminaemia can alter protein binding, potentially affecting the free d ...

[3] = in vivo; cited from earlier work
Protocol: (§1) The estimation of fAUC24 involved a multi-step process. First, the total drug AUC over a 24-h interval during the maintenance phase (AUC24) was calculated for each patient. This was based on individual total clearance (CLtotal) estimated from the observed Cmin through Bayesian analysis. This analysis employed a previously developed population PK (PopPK) model for Japanese patients constructed by Nakayama et al.[23] This PopPK model was based on data from 120 Japanese adult inpatients with MRSA infections and incorporates creatinine clearance and body weight as covariates, making it applicable ...

GSEF bacteraemia [4] = conditions: cited from earlier work
[5] = Teicoplanin trough concentration and Bayesian estimation of AUC24/fAUC24 in patients; assay type: in vivo, human
Protocol: The primary PK/PD parameter for this study was the ratio of the estimated 24-h free-drug area under the curve to the MIC (fAUC24/MICEtest). The estimation of fAUC24 was based on total Cmin measured during the maintenance phase of therapy (at least 3 days after treatment initiation). Our institutional dosing protocol recommends a loading dose of 8–10 mg/kg administered three times approximately every 12 h within the first 48 h for patients with normal renal function, followed by a maintenance dose of 6 mg/kg once daily from Day 3. This loading regimen is intended to rapidly achieve therapeutic concentrations, allowing Cmin values measured during the maintenance phase to serve as a reliable surrogate for drug exposure. Teicoplanin doses were routinely proposed by a pharmacist using therapeutic drug monitoring (TDM) with a target Cmin for teicoplanin set at 15–30 mg/L in line with guideline recommendations,[22] though actual dosing was determined at the discretion of the attending physician.
as §1, with “to our study population. […] Based on the estimated CLtotal for each patient, the AUC24 was calculated as AUC24 (mg·h/L) = daily maintenance dose (mg)/CLtotal (L/h).[13],[24] Second, to account for the impact of hypoalbuminaemia, a patient-specific unbound fraction (fu) was estimated based on a validated model developed specifically for teicoplanin in a Japanese patient population by Yano et al.[25] The model predicts the fu using the patient’s ALB concentration with the following formula: […]” for “...”
where ALB is expressed in g/dL.
Finally, the free AUC24 (fAUC24) was estimated by multiplying the total AUC24 by fu. The resulting fAUC24/MICEtest ratio was used for all subsequent PK/PD analyses.
PK parameters for each patient were determined using the TDM software, BMs-Pod (ver 8.06, https://bmspod.web.fc2.com/).[26],[27]

GSEF bacteraemia [6] = experiment: Clinical outcomes of teicoplanin-treated GSEF bacteraemia (retrospective cohort); assay type: in vivo, human; conditions: for Treatment failure: 30-day all-cause mortality or microbiological failure
Protocol: We conducted a retrospective, single-centre, observational cohort study at The University of Tokyo Hospital between 1 April 2009 and 30 May 2023. The University of Tokyo’s ethics review board approved the study protocol (approval no. 2023138NI) and waived the requirement for written informed consent. The study was conducted in accordance with the ethical standards of the 1964 Declaration of Helsinki and its subsequent amendments. Patients with at least one GSEF-positive blood culture who received teicoplanin during the study period were deemed eligible. The exclusion criteria were as follows: lack of storage of microbiological samples, lack of teicoplanin trough concentration (Cmin), age under 18 years, renal replacement therapy or initiation of teicoplanin treatment more than 72 h after infection. GSEF bacteraemia was defined as one or more blood cultures positive for E. faecium resistant to ampicillin, and susceptible to teicoplanin and vancomycin, accompanied by signs or symptoms of infection consistent with suspected infection sites, as established in previous studies.[9],[15],[16] Polymicrobial infections were included in the analysis. For patients with a history of multiple treatments for GSEF bacteraemia, only the first treatment was considered.
The primary outcome, treatment failure, was defined as a composite of (i) 30-day all-cause mortality or (ii) microbiological failure, defined as persistent bacteraemia (a positive follow-up blood culture obtained >72 h after initiation of appropriate therapy) in patients with at least one follow-up blood culture).[28],[29] In patients without follow-up blood cultures, microbiological failure was not assessed, and treatment failure was determined solely based on 30-day all-cause mortality. […] Secondary outcomes included 90-day all-cause mortality (death within 90 days of the first positive GSEF blood culture), in-hospital mortality (death occurring during hospitalization), relapse (recurrence of GSEF bacteraemia after negative blood cultures following GSEF treatment) and readmission within 90 days of the first positive GSEF blood culture. Relapse was defined as recurrence of GSEF bacteraemia after documented microbiological clearance, confirmed by at least one negative follow-up blood culture. All clinical outcomes and PK parameter estimation (including AUC calculation) were conducted by an infectious disease pharmacist with access to treatment details and patient clinical courses. MIC measurements were performed independently by separate investigators and were integrated only after clinical outcome evaluation was completed. Safety outcomes included (i) incidence of AKI, diagnosed according to the KDIGO criteria (defined as 1.5× increase in sCr from baseline within 7 days or ≥0.3 mg/dL increase within 48 h of baseline following teicoplanin initiation)[30]; (ii) incidence of liver injury, defined as AST ≥ 90 U/L or ALT ≥ 126 U/L (≥3 times the upper limit during teicoplanin treatment)[31]; and (iii) other adverse events associated with teicoplanin use for GSEF bacteraemia.[15]
Continuous variables, expressed as medians with IQRs, were compared between the treatment success and treatment failure groups using the Mann–Whitney U-test. Categorical variables were compared between the two groups using the χ² test or Fisher’s exact test, as appropriate. To identify predictors of treatment failure, several steps were taken for the logistic regression analysis. First, classification and regression tree (CART) analysis was used to identify the optimal cut-off value for the fAUC24/MICEtest associated with treatment failure, according to the previous vancomycin PK/PD study.[32] This created a dichotomous variable for the PK/PD parameter. Next, a multivariable logistic regression model was constructed to assess the independent effect of the fAUC24/MICEtest on treatment failure. […]

[7] = test system: glycopeptide-susceptible Enterococcus faecium (GSEF); experiment: Teicoplanin MIC by automated broth microdilution (MicroScan WalkAway-96 Plus); assay type: cell-based; conditions: all isolates; measurement range 2, 4, 8, 16 mg/L
Protocol: Blood culture specimens were processed using the BACTEC FX system (Becton Dickinson Microbiology Systems, Sparks, MD, USA). Species identification of bacterial isolates recovered from blood cultures was performed using the MALDI Biotyper 1.0 (Bruker Daltonics, Bremen, Germany). Antimicrobial susceptibilities to ampicillin and teicoplanin were tested using the MicroScan WalkAway system (Beckman Coulter Japan, Tokyo, Japan) and interpreted according to the Clinical and Laboratory Standards Institute (M100-S26) breakpoints.[21] Polymicrobial bacteraemia was defined as cases where one or more microorganisms, in addition to E. faecium, were isolated from the same blood culture and were not classified as contaminants according to the CDC criteria.[16]
For this study, teicoplanin MIC determinations were performed on archived isolates using a commercial automated broth microdilution method with the MicroScan WalkAway-96 Plus system (MICWalkAway) (Beckman Coulter) and gradient diffusion method (MICEtest) (Etest, bioMérieux) following the manufacturer’s instructions. […] In cases where disagreement occurred among all three operators, the MIC was retested and determined by the representative operator, taking the initial results into consideration.

## teicoplanin
[1]; isolates of the cohort
  proportion of isolates with MIC ≤ 0.5 mg/L: 84.2%
[1]; treatment failure group (n = 18)
  MICEtest: 0.50 (0.35–0.50) mg/L
[1]; treatment success group (n = 58)
  MICEtest: 0.25 (0.13–0.50) mg/L
[2]
  protein bound: approximately 90%
[3]
  inter-individual variability (CV%) for clearance (CL): 22.1%
  inter-individual variability (CV%) for volume of distribution (V): 26.7%
  residual variability: 15.6%
GSEF bacteraemia [4]; GSEF bacteraemia treatment
  effectiveness versus vancomycin: non-inferior to vancomycin
GSEF bacteraemia [4]; in vivo
  incidence of acute kidney injury (AKI) versus vancomycin: significantly lower incidence of acute kidney injury (AKI)
GSEF bacteraemia [4]; patients with GSEF bacteraemia
  treatment success ratio: 64.9%
[5]; human, in vivo
  Cmin: 18.3 (15.0–23.1) mg/L
  inter-individual variability (CV%) for clearance: 39.2%
  inter-individual variability (CV%) for distribution rate parameter K12: 0.1%
  inter-individual variability (CV%) for distribution rate parameter α: 4.7%
  inter-individual variability (CV%) for steady-state volume of distribution: 43.8%
  median Cmin in both groups: approximately 18 mg/L
[5]; total trough concentration, maintenance phase, treatment failure group (n = 18), median (IQR)
  Cmin: 18.4 (9.70–23.1) mg/L
GSEF bacteraemia [6]; 6/76
  overall 30-day mortality rate: 7.9%
GSEF bacteraemia [6]; 18 of 76 patients
  treatment failure, overall: 23.7%
GSEF bacteraemia [6]; fAUC24/MICEtest < 462 (n = 49)
  30-day mortality: 6 (12.2) n (%)
  90-day mortality: 17 (34.7) n (%)
  In-hospital mortality: 12 (24.5) n (%)
  Readmission within 90 days after bacteraemia: 22 (44.9) n (%)
  Relapse: 7 (14.3) n (%)
  Treatment failure: 17 (34.7) n (%)
GSEF bacteraemia [6]; fAUC24/MICEtest ≥ 462 (n = 27)
  30-day mortality: 0 (0.0) n (%)
  90-day mortality: 3 (11.1) n (%)
  In-hospital mortality: 2 (7.4) n (%)
  Readmission within 90 days after bacteraemia: 8 (29.6) n (%)
  Relapse: 3 (11.1) n (%)
  Treatment failure: 1 (3.7) n (%)
GSEF bacteraemia [6]; logistic regression adjusted for CCI, immunosuppressed state, Pitt bacteraemia score
  Odds ratio (95% CI) of treatment failure for fAUC24/MICEtest ≥ 462, multivariable: 0.099 (0.005–0.562)
GSEF bacteraemia [6]; logistic regression, univariable
  Odds ratio (95% CI) of treatment failure for fAUC24/MICEtest ≥ 462, univariable: 0.072 (0.004–0.389)
GSEF bacteraemia [6]; patients with fAUC24/MICEtest < 462
  incidence of treatment failure: 34.7%
GSEF bacteraemia [6]; patients with fAUC24/MICEtest ≥ 462
  incidence of treatment failure: 3.7%
[7]
  MICWalkAway: ≤ 2 mg/L
